This is an account of results in patent publication US12441703B2, “Carboxamides as modulators of sodium channels” (VERTEX PHARMACEUTICALS INCORPORATED, priority 2019, dated 2025).

Like-named read-outs stand apart in the source and are kept apart here.

The target in the assay is human NaV 1.8 (Homo sapiens, UniProt Q9Y5Y9). Nature of the assay: E-VIPR assay for detecting and measuring NaV inhibition properties. In kind it is cell-based. The following applies: HEK cells expressing truncated human NaV 1.8. Summed up:
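Membrane-potential (coumarin/oxonol) readout after 10 s of 10 Hz biphasic electrical stimulation on E-VIPR. Compounds: 11-point 3-fold dilutions, […], 0.625% DMSO, 30 min at room temperature, human serum optional. Cells: HEK expressing truncated human NaV1.8 co-transduced with KIR2.1.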

[1] abbreviates: E-VIPR assay conducted in the presence of human serum, read-out: IC50.

human NaV 1.8, sequence (Q9Y5Y9 whole entry, looked up, the tested form may be a part): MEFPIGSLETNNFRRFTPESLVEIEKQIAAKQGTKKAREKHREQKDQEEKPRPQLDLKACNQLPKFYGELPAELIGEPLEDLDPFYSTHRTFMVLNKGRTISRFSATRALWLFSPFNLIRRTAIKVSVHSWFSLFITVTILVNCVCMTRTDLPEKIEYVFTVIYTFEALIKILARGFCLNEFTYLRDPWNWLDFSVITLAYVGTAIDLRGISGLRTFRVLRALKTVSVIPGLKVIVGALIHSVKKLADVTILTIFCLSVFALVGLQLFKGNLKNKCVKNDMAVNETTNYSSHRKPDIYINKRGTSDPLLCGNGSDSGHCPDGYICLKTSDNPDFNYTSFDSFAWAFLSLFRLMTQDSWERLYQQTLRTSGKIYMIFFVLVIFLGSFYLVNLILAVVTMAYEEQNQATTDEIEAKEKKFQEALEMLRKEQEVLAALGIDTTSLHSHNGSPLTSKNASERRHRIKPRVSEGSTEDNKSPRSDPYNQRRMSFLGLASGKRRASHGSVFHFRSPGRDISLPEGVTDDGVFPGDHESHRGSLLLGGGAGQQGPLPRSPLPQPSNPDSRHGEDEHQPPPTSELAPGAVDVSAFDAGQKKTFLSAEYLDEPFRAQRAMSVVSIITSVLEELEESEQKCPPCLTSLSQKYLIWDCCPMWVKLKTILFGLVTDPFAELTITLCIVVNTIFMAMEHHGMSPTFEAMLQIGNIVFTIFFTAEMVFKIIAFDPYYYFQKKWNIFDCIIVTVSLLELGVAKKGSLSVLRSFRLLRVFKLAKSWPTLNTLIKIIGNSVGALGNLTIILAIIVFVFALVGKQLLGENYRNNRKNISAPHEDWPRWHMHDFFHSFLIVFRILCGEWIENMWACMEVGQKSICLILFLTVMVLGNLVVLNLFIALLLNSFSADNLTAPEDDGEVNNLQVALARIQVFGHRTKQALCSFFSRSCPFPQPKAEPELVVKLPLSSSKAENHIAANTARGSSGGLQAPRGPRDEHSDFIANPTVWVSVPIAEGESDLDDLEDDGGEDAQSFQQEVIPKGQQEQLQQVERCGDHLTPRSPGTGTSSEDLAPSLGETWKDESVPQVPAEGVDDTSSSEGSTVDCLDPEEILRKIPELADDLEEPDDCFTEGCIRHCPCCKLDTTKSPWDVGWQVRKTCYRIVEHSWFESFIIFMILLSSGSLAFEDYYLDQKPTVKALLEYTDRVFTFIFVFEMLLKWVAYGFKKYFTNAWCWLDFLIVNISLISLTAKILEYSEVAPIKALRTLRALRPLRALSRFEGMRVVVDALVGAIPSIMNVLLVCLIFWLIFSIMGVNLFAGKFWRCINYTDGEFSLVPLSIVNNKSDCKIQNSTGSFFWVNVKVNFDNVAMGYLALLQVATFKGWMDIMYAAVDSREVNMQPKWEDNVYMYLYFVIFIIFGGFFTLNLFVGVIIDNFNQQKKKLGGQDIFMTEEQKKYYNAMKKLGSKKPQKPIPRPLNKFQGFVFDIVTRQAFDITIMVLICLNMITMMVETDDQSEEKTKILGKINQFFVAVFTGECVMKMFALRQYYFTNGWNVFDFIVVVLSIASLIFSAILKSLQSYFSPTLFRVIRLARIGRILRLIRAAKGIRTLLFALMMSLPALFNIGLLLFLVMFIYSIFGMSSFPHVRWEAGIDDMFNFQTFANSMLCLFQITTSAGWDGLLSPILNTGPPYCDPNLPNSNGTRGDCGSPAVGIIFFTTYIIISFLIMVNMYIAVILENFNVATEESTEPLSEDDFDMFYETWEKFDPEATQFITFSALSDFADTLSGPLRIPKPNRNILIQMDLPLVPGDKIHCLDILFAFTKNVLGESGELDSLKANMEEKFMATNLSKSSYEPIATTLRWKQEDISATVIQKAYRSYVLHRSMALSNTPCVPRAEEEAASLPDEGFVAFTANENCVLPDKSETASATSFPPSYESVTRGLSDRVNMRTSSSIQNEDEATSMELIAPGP

`COc1c(Oc2cnc(C(F)(F)F)c(C)c2C(=O)Nc2cnc(C(N)=O)nc2)ccc(OC(F)(F)F)c1F` [Compound 335, 5-[[5-[3-fluoro-2-methoxy-4-(trifluoromethoxy)phenoxy]-3-methyl-2-(trifluoromethyl)pyridine-4-carbonyl]amino]pyrimidine-2-carboxamide]: under setting [1], the 50% inhibitory concentration (IC50) was 15.5 nM.
With `COc1c(Oc2ccc(C(F)(F)F)c(C)c2C(=O)Nc2ccnc(C(N)=O)c2)ccc(F)c1F` [Compound 120, 4-[[6-(3,4-difluoro-2-methoxy-phenoxy)-2-methyl-3-(trifluoromethyl)benzoyl]amino]pyridine-2-carboxamide], the IC50 under setting [1] came to 20 nM.
As to `COc1cc(OC(F)(F)F)ccc1Oc1cc(C(F)(F)F)cc(OC)c1C(=O)Nc1ccnc(C(N)=O)c1` [Compound 277, 4-[[2-Methoxy-6-[2-Methoxy-4-(Trifluoromethoxy)Phenoxy]-4-(Trifluoromethyl)Benzoyl]Amino]Pyridine-2-Carboxamide], the IC50 under setting [1] amounted to 170 nM.
Same read-out and setting: to `Cc1cc(Cl)ccc1Oc1ccc(C(F)(F)F)c(C)c1C(=O)Nc1ccnc(C(N)=O)c1` [Compound 136, 4-[[6-(4-chloro-2-methyl-phenoxy)-2-methyl-3-(trifluoromethyl)benzoyl]amino]pyridine-2-carboxamide] belongs 140 nM.
The same measure, in the same setting: the same measure for `COc1cc(OC(F)(F)F)ccc1Oc1cc2c(c(C)c1C(=O)Nc1ccc(C(N)=O)nc1)OC(F)(F)O2` [Compound 203]: 140 nM.
Still for that read-out and setting: the same measure for `NC(=O)c1cc(NC(=O)c2c(Oc3ccc(OC(F)(F)F)c(F)c3Cl)ccc(C(F)(F)F)c2F)ccn1` [Compound 298, 4-[[6-[2-Chloro-3-Fluoro-4-(Trifluoromethoxy)Phenoxy]-2-Fluoro-3-(Trifluoromethyl)Benzoyl]Amino]Pyridine-2-Carboxamide]: 9.8 nM; for `COc1c(Oc2cc(C(F)(F)F)c(OC)c(F)c2C(=O)Nc2ccc(C(N)=O)nc2)ccc(F)c1F` [Compound 377, 5-[[6-(3,4-difluoro-2-methoxy-phenoxy)-2-fluoro-3-methoxy-4-(trifluoromethyl)benzoyl]amino]pyridine-2-carboxamide]: 21 nM.
Consider `COc1cc(OC(F)(F)F)ccc1Oc1cc(C(F)F)cc(C)c1C(=O)Nc1ccnc(C(N)=O)c1` [Compound 200, 4-[[4-(difluoromethyl)-2-[2-methoxy-4-(trifluoromethoxy)phenoxy]-6-methyl-benzoyl]amino]pyridine-2-carboxamide], for which the concentration for half-maximal inhibition (IC50) under setting [1] was found to be 85 nM.
Same read-out and setting: the same measure for `NC(=O)c1cc(NC(=O)c2c(-c3ccc(OC(F)(F)F)cc3)ccc(C(F)(F)F)c2F)ccn1` [Compound 250, 4-[[2-fluoro-6-[4-(trifluoromethoxy)phenyl]-3-(trifluoromethyl)benzoyl]amino]pyridine-2-carboxamide]: over 3000 nM.
Consider `COc1cc(OC(F)(F)F)ccc1Oc1cc2c(c(F)c1C(=O)Nc1ccc(C(N)=O)nc1)OCCO2` [Compound 1034, 5-[[5-fluoro-7-[2-methoxy-4-(trifluoromethoxy)phenoxy]-2,3-dihydro-1,4-benzodioxine-6-carbonyl]amino]pyridine-2-carboxamide], for which, under setting [1], the 50% inhibitory concentration (IC50) amounted to 160 nM.
In the case of `[2H]C([2H])([2H])Oc1cc(OC(F)(F)F)ccc1Oc1cc(-c2ccc(OC)cc2)cc(F)c1C(=O)Nc1ccnc(C(N)=O)c1` [Compound 1007, 4-[[2-fluoro-4-(4-methoxyphenyl)-6-[2-(trideuteriomethoxy)-4-(trifluoromethoxy)phenoxy]benzoyl]amino]pyridine-2-carboxamide], under setting [1], the IC50 was determined as 170 nM.
`Cc1c(Oc2ccc(C(F)(F)F)c(C)c2C(=O)Nc2ccc(C(N)=O)nc2)ccc(OC(F)(F)F)c1F` [Compound 289, 5-[[6-[3-Fluoro-2-Methyl-4-(Trifluoromethoxy)Phenoxy]-2-Methyl-3-(Trifluoromethyl)Benzoyl]Amino]Pyridine-2-Carboxamide]: the IC50 (E-VIPR assay conducted in the presence of human serum) turned out to be 39 nM.
On to `Cc1cc(OC(F)(F)F)ccc1Oc1ccc(C(F)(F)F)c(C)c1C(=O)Nc1ccc(C(N)=O)nc1` [Compound 236, 5-[[2-methyl-6-[2-methyl-4-(trifluoromethoxy)phenoxy]-3-(trifluoromethyl)benzoyl]amino]pyridine-2-carboxamide], for which, under setting [1], the IC50 was 170 nM.
On the same count and under the same terms, to `COc1cc(F)ccc1Oc1ccc(C(F)(F)F)c(C)c1C(=O)Nc1ccnc(C(N)=O)c1` [Compound 137, 4-[[6-(4-fluoro-2-methoxy-phenoxy)-2-methyl-3-(trifluoromethyl)benzoyl]amino]pyridine-2-carboxamide] belongs 54 nM.
On to `Cc1nc(C(C)(C)C)cc(Oc2ccc(F)cc2Cl)c1C(=O)Nc1ccnc(C(N)=O)c1` [Compound 364, 6-tert-butyl-N-(2-carbamoyl-4-pyridyl)-4-(2-chloro-4-fluoro-phenoxy)-2-methyl-pyridine-3-carboxamide], for which the concentration for half-maximal inhibition (IC50) (E-VIPR assay conducted in the absence of human serum (compounds marked *), read-out: IC50) amounted to 46 nM.
For `COc1c(Oc2ccc(C(F)(F)F)c(F)c2C(=O)Nc2ccnc(C(N)=O)c2)ccc(OC(F)F)c1F` [Compound 343, 4-[[6-[4-(difluoromethoxy)-3-fluoro-2-methoxy-phenoxy]-2-fluoro-3-(trifluoromethyl)benzoyl]amino]pyridine-2-carboxamide], the IC50 under setting [1] amounted to 4.8 nM.
Same read-out and setting: the same measure for `COc1c(Oc2ccc(C(F)(F)F)c(C)c2C(=O)Nc2ccc(C(N)=O)nc2)ccc(F)c1F` [Compound 179, 5-[[6-(3,4-difluoro-2-methoxy-phenoxy)-2-methyl-3-(trifluoromethyl)benzoyl]amino]pyridine-2-carboxamide]: 2000 nM; for `COc1cc(OC(F)(F)F)ccc1Oc1cc(C2CC3CCC2C3)cc(F)c1C(=O)Nc1ccnc(C(N)=O)c1` (centres unmarked) [Compound 1020, 4-[[2-fluoro-6-[2-methoxy-4-(trifluoromethoxy)phenoxy]-4-norboman-2-yl-benzoyl]amino]pyridine-2-carboxamide]: 9 nM.
Still for that read-out and setting: the same measure for `[2H]C([2H])([2H])Oc1cc(OC(F)(F)F)ccc1Oc1cc(C#CC2CC2)cc(F)c1C(=O)Nc1ccnc(C(N)=O)c1` [Compound 1023]: 100 nM; for `NC(=O)c1cc(NC(=O)c2cc(C(F)(F)F)ccc2Oc2ccc(OC3CCCCC3)cc2)ccn1` [Compound 13, 4-[[2-[4-(cyclohexoxy)phenoxy]-5-(trifluoromethyl)benzoyl]amino]pyridine-2-carboxamide]: over 3000 nM.
As to `[2H]C([2H])([2H])Oc1cc(OC(F)(F)F)ccc1Oc1cc(C(F)(F)F)c(F)cc1C(=O)Nc1ccc(C(N)=O)nc1` [Compound 100, 5-[[5-fluoro-2-[2-(trideuteriomethoxy)-4-(trifluoromethoxy)phenoxy]-4-(trifluoromethyl)benzoyl]amino]pyridine-2-carboxamide], the IC50 under setting [1] turned out to be 630 nM.
The same measure, in the same setting: to `COc1cc(OC(F)(F)F)ccc1Oc1cnc(C(F)(F)F)c(C)c1C(=O)Nc1cc(C(N)=O)ncc1C` [Compound 271, N-(2-carbamoyl-5-methyl-4-pyridyl)-5-[2-methoxy-4-(trifluoromethoxy)phenoxy]-3-methyl-2-(trifluoromethyl)pyridine-4-carboxamide] belongs 24 nM; to `Cc1c(C(F)(F)F)ccc(Oc2c(F)cc(F)cc2F)c1C(=O)Nc1ccc(C(N)=O)nc1` [Compound 230, 5-[[2-methyl-3-(trifluoromethyl)-6-(2,4,6-trifluorophenoxy)benzoyl]amino]pyridine-2-carboxamide], over 3000 nM.
